Measured values as given in US9975888B2, “Aryl linked imidazole and triazole derivatives and methods of use thereof for improving the pharmacokinetics of a drug” (MERCK SHARP & DOHME CORP., priority 2013, dated 2018).

Key:
Assay type in all cases: biochemical
[1] = target: T1, CYP3A4 (Homo sapiens, UniProt P08684); assay: Cocktail assay for CYPs, midazolam 1′-hydroxylation (CYP3A4), human liver microsomes; set-up: 0.1 mg/mL protein human liver microsomes (BD Gentest); tissue BD Gentest; host or cells: human liver microsomes; conditions: 2 μM midazolam, 0.1 mg/mL human liver microsomes, 10 min at 37° C.; read-out: CYP IC50 (nM) 3A4 (MDZ)
How it was run: (§1)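 Pooled human liver microsomes (0.1 mg/mL) with a probe cocktail of 10 μM phenacetin, 5 μM dextromethorphan and 2 μM midazolam plus NADPH, pH 7.4, 10 min at 37° C. Each metabolite was quantified by LC/MS/MS against a tolbutamide internal standard. IC50 came from % inhibition at 6 concentrations (e.g. 0.0032–10 μM) by non-linear regression.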
Target sequence in this assay (P08684 whole entry): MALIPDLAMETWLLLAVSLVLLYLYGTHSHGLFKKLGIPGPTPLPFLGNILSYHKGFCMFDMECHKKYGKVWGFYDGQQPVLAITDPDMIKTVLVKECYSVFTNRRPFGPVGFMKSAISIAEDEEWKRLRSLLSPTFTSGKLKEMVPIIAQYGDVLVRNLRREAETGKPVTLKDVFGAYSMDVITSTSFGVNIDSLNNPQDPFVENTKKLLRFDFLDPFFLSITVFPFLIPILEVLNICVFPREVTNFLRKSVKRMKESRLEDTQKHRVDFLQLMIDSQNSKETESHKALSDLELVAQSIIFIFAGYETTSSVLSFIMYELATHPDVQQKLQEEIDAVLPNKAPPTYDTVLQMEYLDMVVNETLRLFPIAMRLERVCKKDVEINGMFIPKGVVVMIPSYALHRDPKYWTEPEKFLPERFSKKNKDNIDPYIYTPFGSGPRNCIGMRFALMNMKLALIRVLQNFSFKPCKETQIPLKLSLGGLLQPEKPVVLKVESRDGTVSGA

[2] = target: T2, CYP2C19 (Homo sapiens, UniProt P33261); assay: Cocktail assay for CYPs, mephenytoin 4′-hydroxylation (CYP2C19), human liver microsomes; conditions: 30 μM mephenytoin, 0.1 mg/mL human liver microsomes, 10 min at 37° C.; read-out: CYP IC50 (nM) 2C19
T2 construct: 0.1 mg/mL protein human liver microsomes (BD Gentest); tissue BD Gentest; host or cells: human liver microsomes
How it was run: (§2)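 Pooled human liver microsomes (0.1 mg/mL) with probe cocktail incl. 5 μM diclofenac (CYP2C9) and 30 μM mephenytoin (CYP2C19), 1 mM NADPH, pH 7.4 phosphate buffer, 10 min at 37° C. Metabolites quantified by LC/MS/MS against internal standard; % inhibition versus no-inhibitor control, IC50 by non-linear regression.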

[3] = target: T1, CYP3A4; assay: IC50 vs CYP3A by inhibition of lopinavir metabolism in human liver microsomes; set-up: 0.01 mg/mL protein human liver microsomes (BD Gentest); tissue BD Gentest; host or cells: human liver microsomes; conditions: 1.5 μM lopinavir, 0.01 mg/mL human liver microsomes, 8 min at 37° C.; read-out: CYP IC50 (nM) 3A4 (LPV)
How it was run: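 Human liver microsomes (0.01 mg/mL) with 1.5 μM lopinavir, 1 mM NADPH, 3.3 mM MgCl2 in 100 mM potassium phosphate pH 7.4, 8 min at 37 °C, six compound concentrations. Summed M2/M3/M4 hydroxy metabolites quantified by LC/MS/MS against tolbutamide; % inhibition normalised between no-inhibitor and 5 μM ketoconazole controls, IC50 by non-linear regression.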
Target sequence in this assay (P08684 2-503): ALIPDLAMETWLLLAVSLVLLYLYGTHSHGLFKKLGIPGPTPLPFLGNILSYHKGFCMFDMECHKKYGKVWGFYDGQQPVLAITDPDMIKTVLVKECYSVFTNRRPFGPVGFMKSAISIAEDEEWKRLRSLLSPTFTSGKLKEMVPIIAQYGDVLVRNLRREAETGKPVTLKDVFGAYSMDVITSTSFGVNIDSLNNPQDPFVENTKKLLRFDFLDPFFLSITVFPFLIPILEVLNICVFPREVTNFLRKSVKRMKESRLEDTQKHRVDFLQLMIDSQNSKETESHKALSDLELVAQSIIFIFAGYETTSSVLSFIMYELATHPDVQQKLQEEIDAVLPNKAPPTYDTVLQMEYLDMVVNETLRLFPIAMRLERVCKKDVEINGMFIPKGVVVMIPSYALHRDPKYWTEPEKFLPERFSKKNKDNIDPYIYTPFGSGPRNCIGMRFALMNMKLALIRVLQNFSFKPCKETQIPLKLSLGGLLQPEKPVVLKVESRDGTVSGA

[4] = target: T3, CYP1A2 (Homo sapiens, UniProt P05177); assay: Cocktail assay for CYPs, phenacetin O-deethylation (CYP1A2), human liver microsomes; conditions: 10 μM phenacetin, 0.1 mg/mL human liver microsomes, 10 min at 37° C.; read-out: CYP IC50 (nM) 1A2
T3 construct: 0.1 mg/mL protein human liver microsomes (BD Gentest); tissue BD Gentest; host or cells: human liver microsomes
T3 sequence (P05177 1-516): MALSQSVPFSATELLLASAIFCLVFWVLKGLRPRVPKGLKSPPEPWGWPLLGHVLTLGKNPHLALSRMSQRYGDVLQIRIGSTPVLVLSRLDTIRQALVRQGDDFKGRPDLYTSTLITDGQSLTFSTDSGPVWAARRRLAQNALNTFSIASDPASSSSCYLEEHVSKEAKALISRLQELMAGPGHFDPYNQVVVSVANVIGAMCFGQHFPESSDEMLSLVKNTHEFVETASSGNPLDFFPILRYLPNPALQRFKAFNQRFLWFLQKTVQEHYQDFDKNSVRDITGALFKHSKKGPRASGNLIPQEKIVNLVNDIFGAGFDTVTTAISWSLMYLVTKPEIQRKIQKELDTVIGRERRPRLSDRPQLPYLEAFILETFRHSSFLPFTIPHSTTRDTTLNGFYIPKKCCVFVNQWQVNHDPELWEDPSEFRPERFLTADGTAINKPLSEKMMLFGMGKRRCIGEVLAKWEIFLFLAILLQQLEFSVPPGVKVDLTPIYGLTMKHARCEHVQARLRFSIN
How it was run: as §1

[5] = target: T4, CYP2C9 (Homo sapiens, UniProt P11712); assay: Cocktail assay for CYPs, diclofenac 4′-hydroxylation (CYP2C9), human liver microsomes; conditions: 5 μM diclofenac, 0.1 mg/mL human liver microsomes, 10 min at 37° C.; read-out: CYP IC50 (nM) 2C9
T4 construct: 0.1 mg/mL protein human liver microsomes (BD Gentest); tissue BD Gentest; host or cells: human liver microsomes
How it was run: as §2

[6] = target: T5, CYP2D6 (Homo sapiens, UniProt P10635); assay: Cocktail assay for CYPs, dextromethorphan O-demethylation (CYP2D6), human liver microsomes; conditions: 5 μM dextromethorphan, 0.1 mg/mL human liver microsomes, 10 min at 37° C.; read-out: CYP IC50 (nM) 2D6
T5 construct: 0.1 mg/mL protein human liver microsomes (BD Gentest); tissue BD Gentest; host or cells: human liver microsomes
How it was run: as §1

T2 sequence (P33261 whole entry): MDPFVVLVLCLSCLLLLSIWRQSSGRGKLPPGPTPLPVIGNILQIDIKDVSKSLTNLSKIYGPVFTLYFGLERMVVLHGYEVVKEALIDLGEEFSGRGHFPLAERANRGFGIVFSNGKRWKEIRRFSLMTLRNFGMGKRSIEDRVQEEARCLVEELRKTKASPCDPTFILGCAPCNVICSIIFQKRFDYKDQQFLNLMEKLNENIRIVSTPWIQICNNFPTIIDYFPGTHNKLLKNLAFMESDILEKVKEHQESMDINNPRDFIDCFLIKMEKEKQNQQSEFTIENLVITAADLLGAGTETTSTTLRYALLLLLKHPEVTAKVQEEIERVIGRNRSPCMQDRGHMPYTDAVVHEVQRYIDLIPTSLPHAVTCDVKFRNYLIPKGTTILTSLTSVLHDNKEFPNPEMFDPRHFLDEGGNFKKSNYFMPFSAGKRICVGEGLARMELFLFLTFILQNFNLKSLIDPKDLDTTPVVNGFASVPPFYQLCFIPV
T4 sequence (P11712 whole entry): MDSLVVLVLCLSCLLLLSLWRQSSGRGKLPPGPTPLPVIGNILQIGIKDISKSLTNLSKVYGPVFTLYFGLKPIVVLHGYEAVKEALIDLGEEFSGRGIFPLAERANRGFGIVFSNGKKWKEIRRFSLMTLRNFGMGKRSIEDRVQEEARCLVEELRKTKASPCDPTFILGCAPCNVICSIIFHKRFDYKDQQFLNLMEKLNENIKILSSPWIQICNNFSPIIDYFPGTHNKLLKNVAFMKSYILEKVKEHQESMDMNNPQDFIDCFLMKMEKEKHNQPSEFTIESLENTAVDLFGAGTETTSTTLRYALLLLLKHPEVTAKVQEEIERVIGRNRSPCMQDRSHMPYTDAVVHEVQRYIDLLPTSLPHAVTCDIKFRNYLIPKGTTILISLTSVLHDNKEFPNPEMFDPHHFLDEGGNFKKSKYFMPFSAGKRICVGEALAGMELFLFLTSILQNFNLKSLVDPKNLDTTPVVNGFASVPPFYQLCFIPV
T5 sequence (P10635 whole entry): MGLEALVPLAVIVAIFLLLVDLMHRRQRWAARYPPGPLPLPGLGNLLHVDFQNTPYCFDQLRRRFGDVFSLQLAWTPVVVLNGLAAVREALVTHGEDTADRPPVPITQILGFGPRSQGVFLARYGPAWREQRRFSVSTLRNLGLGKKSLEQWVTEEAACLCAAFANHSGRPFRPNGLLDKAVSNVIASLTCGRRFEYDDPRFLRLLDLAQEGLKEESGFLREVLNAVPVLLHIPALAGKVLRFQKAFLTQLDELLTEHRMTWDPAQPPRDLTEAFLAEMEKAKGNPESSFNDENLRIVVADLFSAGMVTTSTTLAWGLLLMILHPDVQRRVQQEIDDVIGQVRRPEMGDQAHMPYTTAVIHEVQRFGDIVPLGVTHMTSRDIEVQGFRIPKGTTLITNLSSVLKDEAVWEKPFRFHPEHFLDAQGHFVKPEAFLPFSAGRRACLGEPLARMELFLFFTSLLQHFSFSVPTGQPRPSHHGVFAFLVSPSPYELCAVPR

SMILES | IC50 [1] [nM] | IC50 [2] [nM] | IC50 [3] [nM] | IC50 [4] [nM] | IC50 [5] [nM] | IC50 [6] [nM]
CC(=O)Nc1ncc(S(=O)(=O)N2CCCC2c2ccccc2-c2cncn2C2CC2)s1 (stereo not drawn) [Compound 31, N-(5-((2-(2-(1-cyclopropyl-1H-imidazol-5-yl)phenyl)pyrrolidin-1-yl)sulfonyl)thiazol-2-yl) acetamide] | 25.4 | > 10000 | 25.4 | > 10000 | > 10000 | > 10000
O=C(Oc1ccc(Cl)cc1)N1CCCC1c1ccccc1-c1cncn1CCc1ccc(F)cc1 (stereo not drawn) [Compound 36, 4-chlorophenyl 2-(2-(1-(4-fluorophenethyl)-1H-imidazol-5-yl)phenyl) pyrrolidine-1-carboxylate] | 19.4 | 1680 | 7 | 7690 | 1900 | 3700
CC(C)(C)OC(=O)N1CCCC1c1ccccc1-c1cncn1C1CC1 (stereo not drawn) [Compound 37, tert-butyl 2-(2-(1-cyclopropyl-1H-imidazol-5-yl)phenyl) pyrrolidine-1-carboxylate] | 17.8 | 5810 | 35.2 | > 10000 | > 10000 | > 10000
CC(C)(C)OC(=O)N1CCCC1c1ccccc1-c1cncn1CCc1ccc(F)cc1 (stereo not drawn) [Compound 38, tert-butyl 2-(2-(1-(4-fluorophenethyl)-1H-imidazol-5-yl)phenyl) pyrrolidine-1-carboxylate] | 6.7 | 2300 | 5.5 | 3350 | 1770 | 6860
Fc1ccc(CCn2cncc2-c2ccccc2C2CCCN2)cc1 (stereo not drawn) [Compound 40, 1-(4-fluorophenethyl)-5-(2-(pyrrolidin-2-yl)phenyl)-1H-imidazole] | 43.4 | > 10000 | 27.4 | > 10000 | 4560 | 3300
O=C(C1CCOCC1)N1CCCC1c1ccccc1-c1cncn1CCc1ccc(F)cc1 (stereo not drawn) [Compound 41, (2-(2-(1-(4-fluorophenethyl)-1H-imidazol-5-yl)phenyl)pyrrolidin-1-yl)(tetrahydro-2H-pyran-4-yl)methanone] | 10.7 | > 10000 | 11.1 | > 10000 | > 10000 | > 10000
O=C(C1CC1)N1CCCC1c1cccc(-c2cncn2CCc2ccc(F)cc2)c1 (stereo not drawn) [Compound 47, cyclopropyl(2-(3-(1-(4-fluorophenethyl)-1H-imidazol-5-yl)phenyl)pyrrolidin-1-yl)methanone] | 14.9 | 1010 | 16.7 | 2080 | 2330 | 2500
CC(C)NC(=O)N1CCCC1c1cccc(-c2cncn2CCc2ccc(F)cc2)c1 (stereo not drawn) [Compound 50, 2-(3-(1-(4-fluorophenethyl)-1H-imidazol-5-yl)phenyl)-N-isopropyl-pyrrolidine-1-carboxamide] | 9.4 | 2070 | 14.2 | 5750 | 4180 | ≥ 10000
CS(=O)(=O)N1CCCC1c1cccc(-c2cncn2CCc2ccc(F)cc2)c1 (stereo not drawn) [Compound 51, 1-(4-fluorophenethyl)-5-(3-(1-(methylsulfonyl)pyrrolidin-2-yl)phenyl)-1H-imidazole] | 22.6 | 2110 | 34.7 | 1160 | 4640 | 6780
O=C(c1ccc(N2CCOCC2)nc1)N1CCCC1c1cccc(-c2cncn2CCc2ccc(F)cc2)c1 (stereo not drawn) [Compound 52, (2-(3-(1-(4-fluorophenethyl)-1H-imidazol-5-yl)phenyl)pyrrolidin-1-yl) (6-morpholino-pyridin-3-yl) methanone] | 5.76 | 249 | 6 | 6500 | 1970 | 2460
O=S(=O)(c1cnc(Cl)c(Br)c1)N1CCCC1c1cccc(-c2cncn2CCc2ccc(F)cc2)c1 (stereo not drawn) [Compound 54, 3-Bromo-2-chloro-5-((2-(3-(1-(4-fluorophenethyl)-1H-imidazol-5-yl)phenyl)pyrrolidin-1-yl)sulfonyl) pyridine] | 13.9 | 109 | 3.2 | 1240 | 422 | 1150
CC(C)OC(=O)N1CCCC1c1cccc(-c2cncn2CCc2ccc(F)cc2)c1 (stereo not drawn) [Compound 56, Isopropyl 2-(3-(1-(4-fluorophenethyl)-1H-imidazol-5-yl)phenyl) pyrrolidine-1-carboxylate] | 18.8 | 452 | 11.8 | 3400 | 798 | 4150
CN1CCN(c2ncc(S(=O)(=O)N3CCc4c(cccc4-c4cncn4CCc4ccc(F)cc4)C3)s2)CC1 [Compound 58, 5-((5-(1-(4-fluorophenethyl)-1H-imidazol-5-yl)-3,4-dihydroisoquinolin-2(1H)-yl)sulfonyl)-2-(4-methylpiperazin-1-yl)thiazole] | 4.5 | 2830 | 1.9 | > 10000 | 1350 | 2170
CN1CCN(c2ccc(S(=O)(=O)N3CCc4c(cccc4-c4cncn4CCc4ccc(F)cc4)C3)cn2)CC1 [Compound 59, 5-(1-(4-fluorophenethyl)-1H-imidazol-5-yl)-2-((6-(4-methylpiperazin-1-yl)pyridin-3-yl)sulfonyl)-1,2,3,4-tetrahydroisoquinoline] | 4 | 5610 | 1.5 | > 10000 | 4530 | 1980
O=S(=O)(c1ccc(N2CCOCC2)nc1)N1CCc2c(cccc2-c2cncn2CCc2ccc(F)cc2)C1 [Compound 60, 4-(5-((5-(1-(4-fluorophenethyl)-1H-imidazol-5-yl)-3,4-dihydroisoquinolin-2(1H)-yl)sulfonyl)pyridin-2-yl) morpholine] | 6.2 | 53 | 1.8 | > 10000 | 1350 | 2210
CN(C)c1ccc(S(=O)(=O)N2CCc3c(cccc3-c3cncn3CCc3ccc(F)cc3)C2)cn1 [Compound 61, 5-((5-(1-(4-fluorophenethyl)-1H-imidazol-5-yl)-3,4-dihydroisoquinolin-2(1H)-yl)sulfonyl)-N,N-dimethyl-pyridin-2-amine] | 7.6 | 65 | 1.4 | 4620 | 1050 | 3250
COCCN(C)c1ccc(S(=O)(=O)N2CCc3c(cccc3-c3cncn3CCc3ccc(F)cc3)C2)cn1 [Compound 62, 5-((5-(1-(4-fluorophenethyl)-1H-imidazol-5-yl)-3,4-dihydroisoquinolin-2(1H)-yl)sulfonyl)-N-(2-methoxy-ethyl)-N-methylpyridin-2-amine] | 5.2 | 238 | 1.3 | > 10000 | 575 | 2720
